From PubChem BioAssay AID248 (DTP/NCI, 2004)
Toxic doses and inconclusive results are not listed. No stated cut-off is given here; in the data, active means T/C of 150% or more; inactive means T/C below 125%.

System: L1210 leukemia ip in BDF1 mice, survival T/C
Assay: NCI In Vivo Anticancer Drug Screen. Data for tumor model L1210 Leukemia (intraperitoneal) in B6D2F1 (BDF1) mice
Conditions: endpoint: mean survival time, higher = longer survival
How it was run: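 Value reflects the ratio of survival in compound-treated mice to survival in vehicle-treated controls, with both groups carrying the same transplanted tumor.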

[1] = dose: 50.0 mg/kg/injection, schedule: Q01DX009 (ip), vehicle: Klucel (hydroxypropylcellulose) (HPC)
[2] = dose: 100.0 mg/kg/injection, schedule: Q01DX009 (ip), vehicle: Klucel (hydroxypropylcellulose) (HPC)
[3] = dose: 100.0 mg/kg/injection, schedule: Q04DX003 (ip), vehicle: Klucel (hydroxypropylcellulose) (HPC)
[4] = dose: 200.0 mg/kg/injection, schedule: Q01DX009 (ip), vehicle: Klucel (hydroxypropylcellulose) (HPC)
[5] = dose: 200.0 mg/kg/injection, schedule: Q04DX003 (ip), vehicle: Klucel (hydroxypropylcellulose) (HPC)
[6] = dose: 400.0 mg/kg/injection, schedule: Q04DX003 (ip), vehicle: Klucel (hydroxypropylcellulose) (HPC)
[7] = dose: 100.0 mg/kg/injection, schedule: Q04DX003 (ip), vehicle: saline with Tween-80
[8] = dose: 200.0 mg/kg/injection, schedule: Q04DX003 (ip), vehicle: saline with Tween-80
[9] = dose: 400.0 mg/kg/injection, schedule: Q04DX003 (ip), vehicle: saline with Tween-80
[10] = dose: 100.0 mg/kg/injection, schedule: Q01DX001 (ip), vehicle: carboxymethylcellulose (CMC)
[11] = dose: 200.0 mg/kg/injection, schedule: Q01DX001 (ip), vehicle: carboxymethylcellulose (CMC)
[12] = dose: 400.0 mg/kg/injection, schedule: Q01DX001 (ip), vehicle: carboxymethylcellulose (CMC)
[13] = dose: 100.0 mg/kg/injection, schedule: Q01DX001 (ip), vehicle: acetone
[14] = dose: 200.0 mg/kg/injection, schedule: Q01DX001 (ip), vehicle: acetone
[15] = dose: 400.0 mg/kg/injection, schedule: Q01DX001 (ip), vehicle: acetone
[16] = dose: 400.0 mg/kg/injection, schedule: Q01DX009 (ip), vehicle: Klucel (hydroxypropylcellulose) (HPC)

Measured: T/C

COc1ccc(N=Cc2ccc(C=Nc3ccc(OC)cc3)cc2)cc1
inactive: dose: 25.0 mg/kg/injection, schedule: Q04DX003 (ip), vehicle: Klucel (hydroxypropylcellulose) (HPC) 96 % of control | [1] 90 % of control | dose: 50.0 mg/kg/injection, schedule: Q04DX003 (ip), vehicle: Klucel (hydroxypropylcellulose) (HPC) 98 % of control | [2] 97 % of control | [3] 96 % of control | [4] 88 % of control

Clc1ccc2c(c1)-c1ccccc1C1=NCCN12
inactive: dose: 5.0 mg/kg/injection, schedule: Q01DX009 (ip), vehicle: Klucel (hydroxypropylcellulose) (HPC) 95 % of control | dose: 10.0 mg/kg/injection, schedule: Q01DX009 (ip), vehicle: Klucel (hydroxypropylcellulose) (HPC) 101 % of control | dose: 10.0 mg/kg/injection, schedule: Q04DX003 (ip), vehicle: Klucel (hydroxypropylcellulose) (HPC) 101 % of control | dose: 20.0 mg/kg/injection, schedule: Q04DX003 (ip), vehicle: Klucel (hydroxypropylcellulose) (HPC) 110 % of control

O=P(Cc1ccccc1)(c1ccccc1)c1ccccc1
inactive: [3] 90 % of control | [5] 90 % of control | [6] 94 % of control

CC(=O)[O][Sb]([O]C(C)=O)([c]1ccccc1)([c]1ccccc1)[c]1ccccc1
inactive: dose: 100.0 mg/kg/injection, schedule: Q04DX002 (ip), vehicle: saline with Tween-80 96 % of control | dose: 200.0 mg/kg/injection, schedule: Q04DX002 (ip), vehicle: saline with Tween-80 96 % of control | dose: 400.0 mg/kg/injection, schedule: Q04DX002 (ip), vehicle: saline with Tween-80 96 % of control

Cc1ccc(OS(=O)(=O)c2cccc([N+](=O)[O-])c2)cc1
inactive: [7] 102 % of control | [8] 97 % of control | [9] 100 % of control

CC(Br)c1ccc2c(c1)Cc1ccccc1-2 (configuration not stated)
inactive: [10] 97 % of control | [11] 89 % of control | [12] 97 % of control

NC(=O)NC1C=CC=CC=C1
inactive: [13] 107 % of control | [14] 93 % of control | [15] 98 % of control

COc1cc(Cl)ccc1NC(=O)Oc1cccc2ccccc12
inactive: [2] 89 % of control | [4] 101 % of control | [16] 95 % of control

CCCCNc1ncnc2c1ncn2C1OC(CO)C(O)C1O (configuration not stated)
inactive: dose: 50.0 mg/kg/injection, schedule: Q01DX005 (ip), vehicle: saline 105 % of control

CCCCCCCCCCCCCC#N
inactive: dose: 100.0 mg/kg/injection, schedule: Q01DX001 (ip), vehicle: other 101 % of control | dose: 200.0 mg/kg/injection, schedule: Q01DX001 (ip), vehicle: other 92 % of control | dose: 400.0 mg/kg/injection, schedule: Q01DX001 (ip), vehicle: other 92 % of control

CC(=O)OCC1OC(n2ncc3c(=O)[nH]cnc32)C(OC(C)=O)C1OC(C)=O (configuration not stated)
inactive: dose: 12.5 mg/kg/injection, schedule: Q01DX005 (ip), vehicle: water 103 % of control | dose: 25.0 mg/kg/injection, schedule: Q01DX005 (ip), vehicle: water 104 % of control | dose: 50.0 mg/kg/injection, schedule: Q01DX005 (ip), vehicle: water 97 % of control | dose: 100.0 mg/kg/injection, schedule: Q01DX005 (ip), vehicle: water 98 % of control | dose: 200.0 mg/kg/injection, schedule: Q01DX005 (ip), vehicle: water 92 % of control

C=C1CC2OC(=O)C(=C)C2C(OC(=O)c2ccccc2)/C=C(\C)CCC1OC(=O)c1ccccc1 (configuration not stated)
inactive: dose: 100.0 mg/kg/injection, schedule: Q04DX002 (ip), vehicle: Klucel (hydroxypropylcellulose) (HPC) 108 % of control | dose: 200.0 mg/kg/injection, schedule: Q04DX002 (ip), vehicle: Klucel (hydroxypropylcellulose) (HPC) 91 % of control | dose: 400.0 mg/kg/injection, schedule: Q04DX002 (ip), vehicle: Klucel (hydroxypropylcellulose) (HPC) 97 % of control

O=C(Nc1ccccc1)Nc1cccc(C(F)(F)F)c1
inactive: dose: 50.0 mg/kg/injection, schedule: Q01DX001 (ip), vehicle: carboxymethylcellulose (CMC) 104 % of control | [10] 102 % of control | [11] 107 % of control | [12] 109 % of control

Nc1ccccc1S(=O)(=O)F
inactive: dose: 75.0 mg/kg/injection, schedule: Q04DX003 (ip), vehicle: Klucel (hydroxypropylcellulose) (HPC) 100 % of control | [10] 98 % of control | dose: 150.0 mg/kg/injection, schedule: Q04DX003 (ip), vehicle: Klucel (hydroxypropylcellulose) (HPC) 94 % of control | [11] 98 % of control | dose: 300.0 mg/kg/injection, schedule: Q04DX003 (ip), vehicle: Klucel (hydroxypropylcellulose) (HPC) 96 % of control | [12] 101 % of control

Clc1cc(C(Cl)(Cl)Cl)ccc1C(Cl)(Cl)Cl
inactive: dose: 25.0 mg/kg/injection, schedule: Q01DX009 (ip), vehicle: Klucel (hydroxypropylcellulose) (HPC) 89 % of control | [1] 92 % of control | [2] 90 % of control

CSc1nc(N)c(C(N)=O)cc1C#N
inactive: [7] 89 % of control | [8] 89 % of control | [9] 87 % of control

COC(/C=N/O)c1ccccc1 (configuration not stated)
inactive: dose: 50.0 mg/kg/injection, schedule: Q01DX009 (ip), vehicle: other 88 % of control | dose: 100.0 mg/kg/injection, schedule: Q01DX009 (ip), vehicle: other 88 % of control | dose: 200.0 mg/kg/injection, schedule: Q01DX009 (ip), vehicle: other 101 % of control

Cc1cc(OS(=O)(=O)/C=C/c2ccccc2)c(C(C)C)cc1Cl
inactive: [13] 93 % of control | dose: 100.0 mg/kg/injection, schedule: Q01DX009 (ip), vehicle: acetone 100 % of control | [14] 98 % of control | dose: 200.0 mg/kg/injection, schedule: Q01DX009 (ip), vehicle: acetone 98 % of control | [15] 98 % of control | dose: 400.0 mg/kg/injection, schedule: Q01DX009 (ip), vehicle: acetone 95 % of control

CCCCCCCCCCCCCCCCSSCCCCCCCCCCCCCCCC
inactive: [10] 93 % of control | dose: 100.0 mg/kg/injection, schedule: Q01DX009 (ip), vehicle: saline with Tween-80 92 % of control | [11] 95 % of control | dose: 200.0 mg/kg/injection, schedule: Q01DX009 (ip), vehicle: saline with Tween-80 95 % of control | [12] 95 % of control | dose: 400.0 mg/kg/injection, schedule: Q01DX009 (ip), vehicle: saline with Tween-80 87 % of control

CC(C)CNCc1cc([N+](=O)[O-])ccc1O
inactive: dose: 75.0 mg/kg/injection, schedule: Q01DX001 (ip), vehicle: saline 100 % of control | dose: 150.0 mg/kg/injection, schedule: Q01DX001 (ip), vehicle: saline 97 % of control | dose: 300.0 mg/kg/injection, schedule: Q01DX001 (ip), vehicle: saline 94 % of control

Nc1cnc(N)nc1
inactive: dose: 75.0 mg/kg/injection, schedule: Q01DX Z (ip), vehicle: saline 103 % of control | dose: 150.0 mg/kg/injection, schedule: Q01DX Z (ip), vehicle: saline 111 % of control

COc1ccc(Cl)cc1NC(=O)Nc1ccc(Nc2ccccc2)cc1
inactive: [2] 104 % of control | [3] 101 % of control | [4] 101 % of control | [5] 98 % of control | [16] 86 % of control | [6] 97 % of control
